This note sets out measurements from US11365192B2, “Pyridine compound substituted with azole” (TAISHO PHARMACEUTICAL CO., LTD., priority 2017, dated 2022).

The target of experiment [1] is human CYP4F2 (Homo sapiens (Human), UniProt P78329). Description: Inhibition test against 20-HETE producing enzyme CYP4F2 (luciferine derivative, luminescence). Type of experiment: biochemical. In a few lines:
(§1)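 IC50 derived from luminescence after 60 min at room temperature with membrane fractions of E. coli expressing each human CYP (100 μg/mL protein). For CYP4A11, 60 μM luciferin derivative in 100 mM Tris-HCl pH 7.5 with NADPH-regenerating system; for CYP4F2, 2.5 μM substrate, 1 mM NADPH, 50 mM KPO4 pH 7.4.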

In experiment [2] the target is human CYP4A11 (Homo sapiens (Human), UniProt Q02928). Description: Inhibition test against 20-HETE producing enzyme CYP4A11 (luciferine derivative, luminescence). Type of experiment: biochemical. In a few lines: as §1
human CYP4A11, sequence (Q02928 5-519): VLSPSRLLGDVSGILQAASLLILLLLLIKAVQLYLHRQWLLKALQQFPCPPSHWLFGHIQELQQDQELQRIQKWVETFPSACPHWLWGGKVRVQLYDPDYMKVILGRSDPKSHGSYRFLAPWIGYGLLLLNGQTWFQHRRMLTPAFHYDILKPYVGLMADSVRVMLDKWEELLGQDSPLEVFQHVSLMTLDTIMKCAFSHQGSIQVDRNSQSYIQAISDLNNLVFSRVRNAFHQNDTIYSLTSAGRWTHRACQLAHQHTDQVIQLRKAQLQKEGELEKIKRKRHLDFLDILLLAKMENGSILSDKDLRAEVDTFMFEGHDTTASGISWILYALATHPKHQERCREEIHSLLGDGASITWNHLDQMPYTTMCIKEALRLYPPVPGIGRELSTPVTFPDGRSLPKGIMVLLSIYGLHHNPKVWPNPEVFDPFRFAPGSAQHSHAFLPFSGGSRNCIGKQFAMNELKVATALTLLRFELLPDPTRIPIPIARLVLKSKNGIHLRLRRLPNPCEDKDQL
Where [3] appears, read: human CYP4F2, luciferine derivative, luminescence.
Where [4] appears, read: human CYP4A11, luciferine derivative, luminescence.
[5] abbreviates: E. coli membrane fraction expressing human CYP4F2, 2.5 μM luciferine derivative, room temperature 60 minutes.
Where [6] appears, read: E. coli membrane fraction expressing human CYP4A11, 60 μM luciferine derivative, room temperature 60 minutes.

human CYP4F2, sequence (P78329 5-520): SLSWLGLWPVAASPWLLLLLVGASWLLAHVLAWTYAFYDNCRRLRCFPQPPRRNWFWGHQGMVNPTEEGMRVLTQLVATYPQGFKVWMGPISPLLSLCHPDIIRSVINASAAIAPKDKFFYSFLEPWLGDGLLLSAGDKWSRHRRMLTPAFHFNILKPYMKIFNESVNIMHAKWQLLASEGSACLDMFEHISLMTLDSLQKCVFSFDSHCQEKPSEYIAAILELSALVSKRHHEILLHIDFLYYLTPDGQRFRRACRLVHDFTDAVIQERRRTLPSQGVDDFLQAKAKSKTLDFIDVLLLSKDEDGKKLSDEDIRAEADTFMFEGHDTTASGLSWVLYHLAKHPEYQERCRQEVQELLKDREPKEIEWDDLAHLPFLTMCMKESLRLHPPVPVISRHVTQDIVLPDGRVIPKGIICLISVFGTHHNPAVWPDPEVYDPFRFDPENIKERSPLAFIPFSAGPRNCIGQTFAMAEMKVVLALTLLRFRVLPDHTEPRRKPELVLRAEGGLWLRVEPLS

For orientation: IC50 means the midpoint of a concentration-inhibition curve. Low values mean higher potency, high ones lower potency. Take `CC(C)(COc1cc(CCOc2ccc(-c3ccn[nH]3)nc2)ccn1)C(=O)O` [Example 71-35]: the values for the half-inhibitory concentration (IC50) in experiment [1] (setting [3]) and in experiment [2] (setting [4]) were 1900 nM and 1400 nM, respectively.

On to `O=C(O)c1cccc(CCCOc2ccc(-c3ccn[nH]3)nc2)n1` [Example 29-1, 6-[3-[[6-(1H-Pyrazol-5-yl)-3-pyridinyl]oxy]propyl]-2-pyridinecarboxylic Acid], for which the IC50 in experiment [1] (setting [5]) was determined as 4000 nM; in experiment [2] (setting [6]), 650 nM.

With `CNC(=O)Cc1cccc(COc2ccc(-c3ccn[nH]3)nc2)c1` [Example 42-4], the IC50 in experiment [1] (setting [5]) is 12 nM; in experiment [2] (setting [6]), 540 nM.

On to `OCc1ccc(COc2ccc(-c3ccn[nH]3)nc2)cc1` [Example 23-4], for which the half-inhibitory concentration (IC50) in experiment [1] (setting [5]) came out at 51 nM; in experiment [2] (setting [6]) it was 2000 nM.

Turning to `O=C(O)C12CCC(COc3cnc(-c4ccn[nH]4)c(F)c3)(CC1)CC2` [Example 1-21], the half-maximal inhibitory concentration (IC50) in experiment [1] (setting [5]) turned out to be 31000 nM; in experiment [2] (setting [6]), 29 nM.

Turning to `Oc1cc(CCCOc2ccc(-c3ccn[nH]3)nc2)cc(F)c1F` [Example 11-1, 2,3-Difluoro-5-[3-[[6-(1H-pyrazol-5-yl)-3-pyridinyl]oxy]propyl]phenol], the IC50 in experiment [1] (setting [5]) came to 5.1 nM; in experiment [2] (setting [6]), 140 nM.

On to `CS(=O)(=O)NCCCCCCOc1ccc(-c2ccn[nH]2)nc1` [Example 19-1, N-[6-[[6-(1H-Pyrazol-5-yl)-3-pyridinyl]oxy]hexyl]methanesulfonamide], for which the IC50 in experiment [1] (setting [5]) came to 22 nM; in experiment [2] (setting [6]) it was 1700 nM.

In the case of `O=C(O)C1CC1c1ccc(COc2ccc(-c3ccn[nH]3)nc2)cc1F` (stereo not shown) [Example 70-11, 2-[2-Fluoro-4-[[6-(1H-pyrazol-5-yl)pyridin-3-yl]oxymethyl]phenyl]cyclopropane-1-carboxylic Acid], the values for the IC50 in experiment [1] (setting [3]) and in experiment [2] (setting [4]) were 330 nM and 43 nM, respectively.

Consider `OC1(c2cccc(COc3ccc(-c4ccn[nH]4)nc3)c2)CCC1` [Example 27-3], for which the IC50 in experiment [1] (setting [5]) is 350 nM; in experiment [2] (setting [6]), 120 nM.

With `CNS(=O)(=O)c1cccc(CN(C)S(=O)(=O)c2cccc(COc3ccc(-c4ccn[nH]4)nc3)c2)c1` [Example 23-2, N-Methyl-3-[[methyl-[3-[[6-(1-H-pyrazol-5-yl)-3-pyridinyl]oxymethyl]phenyl]sulfonylamino]methyl]benzenesulfonamide], the values for the IC50 in experiment [1] (setting [5]) and in experiment [2] (setting [6]) were 3 nM and 13 nM, respectively.

Consider `CNC(=O)c1cccc(COc2ccc(-c3ccn[nH]3)nc2)c1` [Example 42-1, N-Methyl-3-[[6-(1H-pyrazol-5-yl)-3-pyridinyl]oxymethyl]benzamide], for which the IC50 in experiment [1] (setting [5]) is 76 nM; in experiment [2] (setting [6]), 420 nM.

Take `O=C(c1cc(COc2ccc(-c3ccn[nH]3)nc2)ccn1)N1CCC(F)(C(=O)O)C1` (stereo not shown) [Example 45-38]: the IC50 in experiment [1] (setting [3]) came out at 300 nM; in experiment [2] (setting [4]), 310 nM.

With `O=C(O)CCC(=O)N1CCC(COc2ccc(-c3ccn[nH]3)nc2)CC1` [Example 48-1, 4-Oxo-4-[4-[[6-(1H-pyrazol-5-yl)-3-pyridinyl]oxymethyl]-1-piperidinyl]butanoic Acid], the IC50 was 11000 nM in experiment [1] (setting [5]) and 620 nM in experiment [2] (setting [6]).

With `O=C(O)C1CCCC(CCCOc2ccc(-c3ccn[nH]3)nc2)C1` (stereo not shown) [Example 1-29], the IC50 in experiment [1] (setting [5]) came out at 360 nM; in experiment [2] (setting [6]) it was 30 nM.

`COc1cc(COc2ccc(-c3ccn[nH]3)nc2)ccc1C(=O)O` [Example 22-17, 2-Methoxy-4-[[6-(1H-pyrazol-5-yl)-3-pyridinyl]oxymethyl]benzoic Acid]: the results for the IC50 in experiment [1] (setting [5]) and in experiment [2] (setting [6]) were 19000 nM and 62 nM, respectively.

Regarding `O=C(O)c1cc(-c2cccc(COc3ccc(-c4ccn[nH]4)nc3)c2)ccn1` [Example 8-11], the half-inhibitory concentration (IC50) in experiment [1] (setting [5]) came to 120 nM; in experiment [2] (setting [6]), 14 nM.

On to `C[C@H](O)CNC(=O)CCc1cccc(COc2ccc(-c3ccn[nH]3)nc2)c1` [Example 43-9], for which the IC50 was 73 nM in experiment [1] (setting [3]) and 130 nM in experiment [2] (setting [4]).

For the compound `O=C(O)C1CCC(COc2ccc(-c3ccn[nH]3)nc2)CC1` (stereo not shown) [Example 1-49], the IC50 in experiment [1] (setting [5]) amounted to 24000 nM; in experiment [2] (setting [6]), 140 nM.

Take `O=C(O)C1COc2cc(COc3ccc(-c4ccn[nH]4)nc3)ccc2C1` (stereo not shown) [Example 71-23]: the IC50 in experiment [1] (setting [3]) came out at 550 nM; in experiment [2] (setting [4]), 50 nM.

As to `CC(C)(COc1ccc(COc2ccc(-c3ccn[nH]3)nc2)cn1)C(=O)O` [Example 75-5], the IC50 turned out to be 780 nM in experiment [1] (setting [3]) and 720 nM in experiment [2] (setting [4]).

For the compound `O=C(O)CCc1ccccc1CCOc1ccc(-c2ccn[nH]2)nc1` [Example 2-5, 3-[2-[2-[[6-(1H-Pyrazol-5-yl)-3-pyridinyl]oxy]ethyl]phenyl]propanoic Acid], the IC50 is 8600 nM in experiment [1] (setting [5]) and 15 nM in experiment [2] (setting [6]).

For `CC(C)(CCc1cc(COc2ccc(-c3ccn[nH]3)nc2)ccn1)C(=O)O` [Example 1-38], the IC50 came to 1200 nM in experiment [1] (setting [5]) and 42 nM in experiment [2] (setting [6]).

Regarding `CC(C)(Oc1cc(COc2ccc(-c3ccn[nH]3)nc2)ccn1)C(=O)O` [Example 22-13, 2-Methyl-2-[[4-[[6-(1H-pyrazol-5-yl)-3-pyridinyl]oxymethyl]-2-pyridinyl]oxy]propanoic Acid], the IC50 in experiment [1] (setting [5]) worked out at 11000 nM; in experiment [2] (setting [6]) it was 380 nM.

Regarding `O=C(O)c1cccc(S(=O)(=O)N2CCC[C@@H](COc3ccc(-c4ccn[nH]4)nc3)C2)c1` [Example 1-37], the IC50 in experiment [1] (setting [5]) was found to be 94 nM; in experiment [2] (setting [6]), 21 nM.

As to `O=C(O)c1nc2c(o1)CN(C(=O)c1cccc(COc3ccc(-c4ccn[nH]4)nc3)c1)C2` [Example 45-42], the IC50 in experiment [1] (setting [3]) worked out at 34 nM; in experiment [2] (setting [4]), 450 nM.

Turning to `O=C(O)C1CCN(c2cccc(COc3ccc(-c4ccn[nH]4)nc3)c2)CC1` [Example 34-1, 1-[3-[[6-(1H-Pyrazol-5-yl)-3-pyridinyl]oxymethyl]phenyl]-4-piperidinecarboxylic Acid], the IC50 in experiment [1] (setting [5]) came to 4100 nM; in experiment [2] (setting [6]) it was 42 nM.

Regarding `O=C(O)C1CC(c2cccc(CCOc3ccc(-c4ccn[nH]4)nc3)c2)C1` (stereo not shown) [Example 71-19], the IC50 came out at 540 nM in experiment [1] (setting [3]) and 53 nM in experiment [2] (setting [4]).

Consider `C[C@@H](CO)NC(=O)CCc1cccc(COc2ccc(-c3ccn[nH]3)nc2)c1` [Example 43-7], for which the IC50 came to 63 nM in experiment [1] (setting [3]) and 320 nM in experiment [2] (setting [4]).

As for `O=C(O)C1CC1c1ccc(F)c(CCOc2ccc(-c3ccn[nH]3)nc2)c1` (single isomer, unassigned) [Example 74-8], the concentration for half-maximal inhibition (IC50) in experiment [1] (setting [3]) is 410 nM; in experiment [2] (setting [4]), 77 nM.

As for `CS(=O)(=O)NC(=O)c1cccc(COc2ccc(-c3ccn[nH]3)nc2)c1` [Example 44-1, N-Methylsulfonyl-3-[[6-(1H-pyrazol-5-yl)-3-pyridinyl]oxymethyl]benzamide], the results for the IC50 in experiment [1] (setting [3]) and in experiment [2] (setting [4]) were 7500 nM and 49 nM, respectively.

Take `O=C(O)C12CCC(COc3ccc(-c4[nH]ncc4Cl)nc3)(CC1)CC2` [Example 1-20]: the concentration for half-maximal inhibition (IC50) in experiment [1] (setting [5]) came to 9200 nM; in experiment [2] (setting [6]), 16 nM.

For `CC(C)(Oc1cccc(CCOc2ccc(-c3ccn[nH]3)nc2)c1)C(=O)O` [Example 71-31], the IC50 in experiment [1] (setting [3]) was determined as 15000 nM; in experiment [2] (setting [4]) it was 300 nM.

`O=C(O)C1CCc2cc(CCOc3ccc(-c4ccn[nH]4)nc3)ccc2O1` (stereo not shown) [Example 71-7, 6-[2-[6-(1H-Pyrazol-5-yl)pyridin-3-yl]oxyethyl]-3,4-dihydro-2H-chromene-2-carboxylic Acid]: the IC50 is 550 nM in experiment [1] (setting [3]) and 82 nM in experiment [2] (setting [4]).

With `CC(C)(COc1ccc(CCCOc2ccc(-c3ccn[nH]3)nc2)cn1)C(=O)O` [Example 71-39], the IC50 amounted to 51 nM in experiment [1] (setting [3]) and 780 nM in experiment [2] (setting [4]).

For `CN(C(=O)Cc1cccc(COc2ccc(-c3ccn[nH]3)nc2)c1)S(C)(=O)=O` [Example 44-4], the IC50 in experiment [1] (setting [3]) came out at 290 nM; in experiment [2] (setting [4]) it was 410 nM.

For `O=C(CCc1cccc(COc2ccc(-c3ccn[nH]3)nc2)c1)N1CCCC1` [Example 42-13], the IC50 in experiment [1] (setting [5]) came to 15 nM; in experiment [2] (setting [6]), 150 nM.

With `O=C(O)CCCc1cccc(CCOc2ccc(-c3ccn[nH]3)nc2)c1` [Example 4-1, 4-[3-[2-[[6-(1H-Pyrazol-5-yl)-3-pyridinyl]oxy]ethyl]phenyl]butanoic Acid], the values for the IC50 in experiment [1] (setting [5]) and in experiment [2] (setting [6]) were 830 nM and 22 nM, respectively.

Turning to `O=C(O)CCCCOc1ccc(-c2ccn[nH]2)nc1` [Example 10-1, 5-[[6-(1H-Pyrazol-5-yl)-3-pyridinyl]oxy]pentanoic Acid], the figures for the IC50 in experiment [1] (setting [5]) and in experiment [2] (setting [6]) were 19000 nM and 560 nM, respectively.

On to `CC(C(=O)O)c1cccc(COc2ccc(-c3ccn[nH]3)nc2)c1` (stereo not shown) [Example 24-1, Sodium 2-[3-[[6-(1H-pyrazol-5-yl)-3-pyridinyl]oxymethyl]phenyl]propanoate], for which the results for the IC50 in experiment [1] (setting [5]) and in experiment [2] (setting [6]) were 13000 nM and 16 nM, respectively.

As to `CC(C)(CCNC(=O)c1cc(COc2ccc(-c3ccn[nH]3)nc2)ccn1)C(=O)O` [Example 45-15], the 50% inhibitory concentration (IC50) was 180 nM in experiment [1] (setting [3]) and 1200 nM in experiment [2] (setting [4]).

Consider `O=C(O)[C@H]1CCCN(C(=O)c2cccc(COc3ccc(-c4ccn[nH]4)nc3)c2)C1` [Example 45-29], for which the IC50 is 4900 nM in experiment [1] (setting [3]) and 170 nM in experiment [2] (setting [4]).

As to `CC(=O)N1CC(CCCCCCCCOc2ccc(-c3ccn[nH]3)nc2)(C(=O)O)C1` [Example 71-44], the half-maximal inhibitory concentration (IC50) in experiment [1] (setting [3]) is 37 nM; in experiment [2] (setting [4]) it was 1000 nM.

As for `CC(C)(CNS(=O)(=O)c1cccc(COc2ccc(-c3ccn[nH]3)nc2)c1)C(=O)O` [Example 75-3], the IC50 stood at 490 nM in experiment [1] (setting [3]) and 36 nM in experiment [2] (setting [4]).

Consider `CCC(OCCCCCCCOc1ccc(-c2ccn[nH]2)nc1)C(=O)O` (stereo not shown) [Example 71-1, 2-[7-[6-(1H-Pyrazol-5-yl)pyridin-3-yl]oxyheptoxy]butanoic Acid], for which the IC50 in experiment [1] (setting [3]) came to 140 nM; in experiment [2] (setting [4]), 110 nM.
